Source: patent US9040747B2, “Method for producing reduced coenzyme Q10, method for stabilizing same, and composition comprising same” (Kaneka Corporation, priority 2009, dated 2015)

Key:
[1] = Reduction of oxidized coenzyme Q10 by amino acid in ethanol, HPLC proportion of reduced coenzyme Q10; conditions: 78° C., 16 hours, nitrogen atmosphere; for Comparative Example 2: proportion of reduced coenzyme Q10: 6 equivalents amino acid; for Proportion of reduced coenzyme Q10: Example 1: 6 equivalents amino acid
Description: (§1) The purity of reduced coenzyme Q10 and the weight ratio of reduced coenzyme Q10 to oxidized coenzyme Q10 were determined by HPLC analysis in the Examples.
Crystalline oxidized coenzyme Q10 (0.3 g (i.e., 0.36 mmol)) was added to ethanol (4.5 g). […] The obtained mixtures were stirred and heated at 78° C. for 16 hours under a nitrogen atmosphere.

[2] = Reduction of oxidized coenzyme Q10 by amino acid in Span 80/glycerin/Tween 80/MCT, HPLC proportion of reduced coenzyme Q10; conditions: Span 80, glycerin, Tween 80, MCT, 80° C., 16 hours, nitrogen atmosphere; for Comparative Example 3: proportion of reduced coenzyme Q10: 6 equivalents amino acid; for Proportion of reduced coenzyme Q10: Example 2 / Comparative Example 1: 6 equivalents
Description: as §1
(§2) Column: […] C18 (Waters): 250 mm (length)×4.6 mm (inner diameter); mobile phase: C2H5OH:CH3OH=4:3 (v:v); detection wavelength: 210 nm; flow rate: 1 ml/min; retention time for reduced coenzyme Q10: 9.1 min.; retention time for oxidized coenzyme Q10: 13.3 min.
Crystalline oxidized coenzyme Q10 (0.3 g (i.e., 0.36 mmol)) and tryptophan (6 equivalents (i.e., 2.16 mmol)) were added to a liquid mixture of Span 80 (0.4 g), glycerin (0.3 g), Tween 80 (4.9 g), and MCT (1.4 g). The obtained mixture was stirred and heated at 80° C. for 16 hours under a nitrogen atmosphere.
Crystalline oxidized coenzyme Q10 (0.3 g (i.e., 0.36 mmol)) was added to a liquid mixture of Span 80 (0.4 g), glycerin (0.3 g), Tween 80 (4.9 g), and MCT (1.4 g). L-cysteine or N-acetylcysteine (6 equivalents (i.e., 2.16 mmol) each) was separately added thereto. The obtained mixtures were stirred and heated at 80° C. for 16 hours under a nitrogen atmosphere.
Crystalline oxidized coenzyme Q10 (0.3 g (i.e., 0.36 mmol)) was added to a liquid mixture of Span 80 (0.4 g), glycerin (0.3 g), Tween 80 (4.9 g), and MCT (1.4 g). One of the amino acids (6 equivalents (i.e., 2.16 mmol) each) listed in table 3 was separately added thereto. The obtained mixtures were stirred and heated at 80° C. for 16 hours under a nitrogen atmosphere.

[3] = Reduction of oxidized coenzyme Q10 by amino acid in limonene, HPLC proportion of reduced coenzyme Q10; conditions: 85° C., 16 hours, nitrogen atmosphere; for Comparative Example 4: proportion of reduced coenzyme Q10: 6 equivalents amino acid; for proportions of reduced coenzyme Q10: Example 3: 6 equivalents
Description: as §1, §2
Crystalline oxidized coenzyme Q10 (0.3 g (i.e. 0.36 mmol)) was added to limonene (4.5 g). Proline (6 equivalents (i.e., 2.16 mmol)) or serine (6 equivalents (i.e. 2.16 mmol)) was separately added thereto. The obtained mixtures were stirred and heated at 85° C. for 16 hours under a nitrogen atmosphere. The reaction solutions were analyzed by HPLC after the reaction.
Crystalline oxidized coenzyme Q10 (0.3 g (i.e., 0.36 mmol)) was added to limonene (4.5 g). One of the amino acids (6 equivalents (i.e., 2.16 mmol) each) listed in table 3 was separately added thereto. The obtained mixtures were stirred and heated at 85° C. for 16 hours under a nitrogen atmosphere.

[4] = Reduction of oxidized coenzyme Q10 by amino acid in condensed ricinoleate (CR-310)/MCT, HPLC proportion of reduced coenzyme Q10; conditions: condensed ricinoleate (CR-310) and MCT, 80° C., 16 hours, nitrogen atmosphere; for Comparative Example 5: proportion of reduced coenzyme Q10: 6 equivalents amino acid
Description: as §1, §2
Crystalline oxidized coenzyme Q10 (0.3 g (i.e. 0.36 mmol)) and tryptophan (6 equivalents (i.e., 2.16 mmol)) were added to a liquid mixture of condensed ricinoleate (CR-310, Sakamoto Yakuhin Kogyo Co., Ltd.) (3.8 g) and MCT (3.8 g). The obtained mixture was stirred and heated at 80° C. for 16 hours under a nitrogen atmosphere. The reaction solution was analyzed by HPLC after the reaction.
Crystalline oxidized coenzyme Q10 (0.3 g (i.e., 0.36 mmol)) was added to a liquid mixture of condensed ricinoleate (CR-310, Sakamoto Yakuhin Kogyo Co., Ltd.) (3.8 g) and MCT (3.8 g). One of the amino acids (6 equivalents (i.e., 2.16 mmol) each) listed in table 3 was separately added thereto. The obtained mixtures were stirred and heated at 80° C. for 16 hours under a nitrogen atmosphere.

In the case of `C[C@H](N)C(=O)O` [Alanine], the “Comparative Example 2: proportion of reduced coenzyme Q10” value [1] is reported as 0%, the “Comparative Example 3: proportion of reduced coenzyme Q10” value [2] is reported as 0% and the “Comparative Example 4: proportion of reduced coenzyme Q10” value [3] is reported as 0%. The “Comparative Example 5: proportion of reduced coenzyme Q10” value [4] was 0%.
In the case of `N=C(N)NCCC[C@H](N)C(=O)O` [Arginine], the “Proportion of reduced coenzyme Q10” value [1] is reported as 35% by weight.
With `NCC(=O)O` [Glycine] the “Comparative Example 2: proportion of reduced coenzyme Q10” value [1] was 0%, the “Comparative Example 3: proportion of reduced coenzyme Q10” value [2] was 0% and the “Comparative Example 4: proportion of reduced coenzyme Q10” value [3] was 0%. For the same molecule, the “Comparative Example 5: proportion of reduced coenzyme Q10” value [4] was 1%.
With `CC[C@H](C)[C@H](N)C(=O)O` [Isoleucine] the “Comparative Example 2: proportion of reduced coenzyme Q10” value [1] was 1%, the “Comparative Example 3: proportion of reduced coenzyme Q10” value [2] was 1% and the “Comparative Example 4: proportion of reduced coenzyme Q10” value [3] was 0%. For the same molecule, the “Comparative Example 5: proportion of reduced coenzyme Q10” value [4] was 0%.
For `N[C@@H](CS)C(=O)O` [L-cysteine], the “Proportion of reduced coenzyme Q10” value [2] was 7% by weight.
With `CC(=O)N[C@@H](CS)C(=O)O` [N-acetylcysteine] the “Proportion of reduced coenzyme Q10” value [2] was 3% by weight.
For `O=C(O)[C@@H]1CCCN1` [Proline], the “Proportion of reduced coenzyme Q10” value [1] was 6% by weight and the “proportions of reduced coenzyme Q10” value [3] was 8 % by weight.
For `N[C@@H](CO)C(=O)O` [Serine], the “Proportion of reduced coenzyme Q10” value [1] was 5% by weight and the “proportions of reduced coenzyme Q10” value [3] was 3 % by weight.
With `N[C@@H](Cc1c[nH]c2ccccc12)C(=O)O` [Tryptophan] the “Proportion of reduced coenzyme Q10” value [1] was 21% by weight, the “Proportion of reduced coenzyme Q10” value [2] was 33% by weight and the “Proportion of reduced coenzyme Q10” value ([4]; Example 4: 6 equivalents) was 5 % by weight.
In the case of `CC(C)[C@H](N)C(=O)O` [Valine], the “Comparative Example 2: proportion of reduced coenzyme Q10” value [1] is reported as 1%, the “Comparative Example 3: proportion of reduced coenzyme Q10” value [2] is reported as 0% and the “Comparative Example 4: proportion of reduced coenzyme Q10” value [3] is reported as 0%. For the same molecule, the “Comparative Example 5: proportion of reduced coenzyme Q10” value [4] was 0%.
For Lysine•n hydrate, the “Proportion of reduced coenzyme Q10” value [1] was 69% by weight.
